Our source for the TGI values is PubChem BioAssay (NCI).

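All cell lines were grown in 96-well plates and treated with compound for 48 hours. TGI is the concentration that stops growth completely.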 Some results are limits rather than exact numbers.

Test systems include SR leukemia; HL-60(TB) leukemia; TK-10 renal; HCT-15 colon; SNB-19 CNS; MDA-MB-231 breast; RPMI-8226 leukemia; UO-31 renal; RXF 393 renal; SF-539 CNS; COLO 205 colon; UACC-257 melanoma; MCF7 breast; SK-OV-3 ovarian; LOX IMVI melanoma; OVCAR-5 ovarian.
What all share (assay): inhibition of tumour cell growth, NCI panel, 48 h

With `NC1=NCC(CN2CCCCC2)O1` (stereo not drawn), the TGI in the experiment with SR leukemia, with HL-60(TB) leukemia, in the experiment on TK-10 renal, in the experiment on HCT-15 colon, with SNB-19 CNS and in the experiment on MDA-MB-231 breast was greater than 100 µM throughout. Also, the TGI in the experiment on RPMI-8226 leukemia, in the experiment on UO-31 renal, in the experiment on RXF 393 renal, in the experiment with SF-539 CNS, with COLO 205 colon and in the experiment with UACC-257 melanoma was greater than 100 µM throughout. In addition, the TGI with MCF7 breast, in the experiment with SK-OV-3 ovarian and in the experiment with LOX IMVI melanoma was greater than 100 µM in each case.

Consider `O=C(NNC(=S)Nc1ccc(Cl)cc1)C12CC3CC(CC(C3)C1)C2`, for which the TGI with SR leukemia is 4.83 µM; with HL-60(TB) leukemia, 5.48 µM; with TK-10 renal, 70.8 µM; in the experiment on HCT-15 colon it was 42.5 µM; in the experiment on OVCAR-5 ovarian, 81.1 µM; with SNB-19 CNS, greater than 79.2 µM. In addition, the TGI was 19.6 µM in the experiment with MDA-MB-231 breast; 2.28 µM with RPMI-8226 leukemia; 19 µM in the experiment with UO-31 renal; 48.6 µM in the experiment with RXF 393 renal; 14.3 µM with SF-539 CNS; 18.3 µM in the experiment with COLO 205 colon. The TGI with UACC-257 melanoma is greater than 57.3 µM; in the experiment with MCF7 breast it was greater than 56.5 µM; in the experiment on SK-OV-3 ovarian, 64.7 µM; with LOX IMVI melanoma, 19 µM.

Consider `O=C(c1cc(Cl)cc(Cl)c1)N(Cc1cccnc1)C(=S)N(Cc1cccnc1)C(=O)c1cc(Cl)cc(Cl)c1`, for which the TGI was greater than 100 µM in the experiment with SR leukemia; 90 µM in the experiment on HL-60(TB) leukemia; 89.6 µM in the experiment on TK-10 renal; 83.3 µM in the experiment on HCT-15 colon; greater than 100 µM in the experiment on OVCAR-5 ovarian; greater than 100 µM with SNB-19 CNS. The TGI was 71.5 µM with MDA-MB-231 breast; greater than 100 µM in the experiment with RPMI-8226 leukemia; 56.2 µM with UO-31 renal; 92.7 µM in the experiment with RXF 393 renal; 51.4 µM with SF-539 CNS; 38.5 µM with COLO 205 colon. The TGI with UACC-257 melanoma, in the experiment on MCF7 breast, with SK-OV-3 ovarian and with LOX IMVI melanoma was greater than 100 µM in each case.

For `COc1ccc(Cc2cc(OC)c(OC)c(OC)c2)cc1`, the TGI was 1.4 µM in the experiment on SR leukemia; 0.308 µM in the experiment with HL-60(TB) leukemia; greater than 100 µM in the experiment with TK-10 renal; greater than 30.9 µM in the experiment with HCT-15 colon; greater than 100 µM with OVCAR-5 ovarian; greater than 100 µM with SNB-19 CNS. Moreover, the TGI with MDA-MB-231 breast is greater than 30.7 µM; in the experiment on RPMI-8226 leukemia, 39.1 µM; in the experiment on UO-31 renal, 90.5 µM; in the experiment on RXF 393 renal, 3.38 µM; in the experiment with SF-539 CNS, 1.76 µM; in the experiment with COLO 205 colon it was 1.51 µM. Moreover, the TGI in the experiment with UACC-257 melanoma was greater than 71.8 µM; in the experiment on MCF7 breast it was greater than 100 µM; with SK-OV-3 ovarian it was 23.2 µM; in the experiment with LOX IMVI melanoma, greater than 89.7 µM.

Take `CC(C)C1CC(CO)(CNc2nc(N)nc(Cl)c2/C=N\O)C1` (stereo not drawn): the TGI in the experiment with SR leukemia is greater than 54.2 µM; in the experiment on HL-60(TB) leukemia, 29.1 µM; in the experiment on TK-10 renal it was 61.1 µM; with HCT-15 colon it was 32.7 µM; in the experiment on OVCAR-5 ovarian, 85.2 µM; in the experiment with SNB-19 CNS it was greater than 100 µM. The TGI in the experiment on MDA-MB-231 breast was 31.6 µM; in the experiment on RPMI-8226 leukemia, 31.9 µM; in the experiment with UO-31 renal it was 36.3 µM; with RXF 393 renal it was 55.1 µM; with SF-539 CNS it was 49.3 µM; with COLO 205 colon, 11.8 µM. The TGI in the experiment with UACC-257 melanoma is 11.8 µM; with MCF7 breast, 4.27 µM; with SK-OV-3 ovarian, 30.2 µM; in the experiment on LOX IMVI melanoma, 22.5 µM.

Consider `COC(=O)[C@H](C)NC(=O)C1(CNC(=O)[C@H](C)NC(=O)OC(C)(C)C)Cc2ccccc2-c2ccccc2C1`, for which the TGI was 43.4 µM in the experiment with SR leukemia; 39.5 µM with HL-60(TB) leukemia; greater than 59.2 µM in the experiment on TK-10 renal; 31.1 µM in the experiment with HCT-15 colon; 41.1 µM with OVCAR-5 ovarian; greater than 100 µM with SNB-19 CNS. Besides, the TGI was 35.4 µM with MDA-MB-231 breast; 23.9 µM with RPMI-8226 leukemia; 11.6 µM with UO-31 renal; greater than 88.9 µM in the experiment on RXF 393 renal; greater than 58.1 µM with SF-539 CNS; 53.9 µM with COLO 205 colon. For the same compound, the TGI in the experiment with UACC-257 melanoma was greater than 78.9 µM; in the experiment on MCF7 breast, greater than 84.3 µM; in the experiment on SK-OV-3 ovarian, greater than 100 µM; with LOX IMVI melanoma, 9.13 µM.

As to `OCC(O)C(O)C(O)C(O)CNCCO/N=C1/C(c2c(O)[nH]c3ccccc23)=Nc2ccccc21` (stereo not drawn), the TGI in the experiment with SR leukemia was 25.3 µM; with HL-60(TB) leukemia, 37.9 µM; in the experiment on TK-10 renal it was greater than 50 µM; in the experiment with HCT-15 colon, greater than 50 µM; with OVCAR-5 ovarian, greater than 50 µM; in the experiment with SNB-19 CNS, 35.9 µM. For the same compound, the TGI with MDA-MB-231 breast is 29.7 µM; in the experiment with RPMI-8226 leukemia, greater than 50 µM; in the experiment on UO-31 renal it was greater than 50 µM; in the experiment on RXF 393 renal, 39.2 µM; with SF-539 CNS, 41.6 µM; in the experiment on COLO 205 colon, 40.6 µM. Moreover, the TGI with UACC-257 melanoma stood at 37.9 µM; in the experiment on MCF7 breast it was 33.1 µM; with SK-OV-3 ovarian it was 29.8 µM; with LOX IMVI melanoma it was 17.3 µM.

For the compound `CCOC(=O)NC(Nc1ccc(S(=O)(=O)Nc2ccc(OC)nn2)cc1)(C(F)(F)F)C(F)(F)F`, the TGI with SR leukemia is 55.8 µM; with HL-60(TB) leukemia, 58.2 µM; with TK-10 renal it was 68.8 µM; in the experiment with HCT-15 colon it was greater than 100 µM; in the experiment on OVCAR-5 ovarian, greater than 100 µM; with SNB-19 CNS, greater than 100 µM. The TGI in the experiment on MDA-MB-231 breast was 38.1 µM; in the experiment with RPMI-8226 leukemia, 54.8 µM; in the experiment with UO-31 renal it was greater than 100 µM; in the experiment on RXF 393 renal, 34.8 µM; in the experiment with SF-539 CNS, 36.5 µM; in the experiment on COLO 205 colon, 58.7 µM. Moreover, the TGI in the experiment on UACC-257 melanoma is 98.6 µM; in the experiment on MCF7 breast, greater than 100 µM; in the experiment on SK-OV-3 ovarian, greater than 100 µM; in the experiment with LOX IMVI melanoma, 82 µM.

Consider `N#CC(NNC(=O)c1c(Cl)c(Cl)c(Cl)c(Cl)c1-c1nc2ccc(C(=O)c3ccccc3)cc2[nH]1)c1ccccc1` (stereo not drawn), for which the TGI in the experiment with SR leukemia was 11.2 µM; in the experiment on HL-60(TB) leukemia it was 45.6 µM; with TK-10 renal, 90.8 µM; in the experiment with HCT-15 colon it was greater than 100 µM; with OVCAR-5 ovarian, greater than 100 µM; with SNB-19 CNS it was 99.2 µM. For the same compound, the TGI in the experiment on MDA-MB-231 breast is 36.4 µM; in the experiment on RPMI-8226 leukemia, 24.9 µM; in the experiment with UO-31 renal, greater than 100 µM; with RXF 393 renal it was 22.8 µM; with SF-539 CNS it was 14.5 µM; with COLO 205 colon it was 24.3 µM. Further, the TGI in the experiment with UACC-257 melanoma is greater than 100 µM; with MCF7 breast, 12.7 µM; in the experiment with SK-OV-3 ovarian, 69.8 µM; with LOX IMVI melanoma, 87.9 µM.
